The assay addresses Endoplasmic reticulum aminopeptidase 2 (Homo sapiens, UniProt Q6P179). The experiment in a line: Activation of ERAP2 (unknown origin)-mediated Arg-AMC substrate hydrolysis after 60 mins by Rapidfire-MS analysis.

Where only a bound is given, the exact number is not on record here.

Endoplasmic reticulum aminopeptidase 2, sequence (Q6P179 whole entry): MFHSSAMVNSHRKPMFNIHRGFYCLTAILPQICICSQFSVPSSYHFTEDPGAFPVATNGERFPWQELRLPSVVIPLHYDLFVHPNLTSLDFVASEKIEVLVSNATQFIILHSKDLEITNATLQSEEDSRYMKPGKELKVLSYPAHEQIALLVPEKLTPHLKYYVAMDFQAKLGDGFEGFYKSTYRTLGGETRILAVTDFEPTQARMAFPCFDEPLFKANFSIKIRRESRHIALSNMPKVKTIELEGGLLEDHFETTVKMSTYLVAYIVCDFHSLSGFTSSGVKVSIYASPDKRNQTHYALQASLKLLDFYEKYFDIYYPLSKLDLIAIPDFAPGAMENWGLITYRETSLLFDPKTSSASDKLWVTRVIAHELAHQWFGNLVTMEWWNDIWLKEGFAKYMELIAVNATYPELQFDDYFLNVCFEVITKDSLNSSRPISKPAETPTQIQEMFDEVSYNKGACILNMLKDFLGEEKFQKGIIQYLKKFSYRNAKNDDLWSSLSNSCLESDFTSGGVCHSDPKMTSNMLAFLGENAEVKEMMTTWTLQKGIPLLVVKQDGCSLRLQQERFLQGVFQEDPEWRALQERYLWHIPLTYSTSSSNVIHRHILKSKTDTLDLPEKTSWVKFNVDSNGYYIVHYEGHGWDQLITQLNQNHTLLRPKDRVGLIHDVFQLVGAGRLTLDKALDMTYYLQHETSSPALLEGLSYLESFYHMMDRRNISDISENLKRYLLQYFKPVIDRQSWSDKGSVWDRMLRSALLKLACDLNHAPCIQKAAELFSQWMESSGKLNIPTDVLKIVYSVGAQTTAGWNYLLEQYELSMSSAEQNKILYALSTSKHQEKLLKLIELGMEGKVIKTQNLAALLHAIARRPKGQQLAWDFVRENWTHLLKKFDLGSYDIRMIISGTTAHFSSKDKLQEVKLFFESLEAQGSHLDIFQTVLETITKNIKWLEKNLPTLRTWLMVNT

As a reminder, the IC50 is the midpoint of a concentration-inhibition curve. Regarding `C[C@@H]1C[C@H](O)[C@@]2(C)C(C(=O)O)=CCC[C@@H]2[C@@]1(C)CCc1ccoc1`, the IC50 was more than 158 µM.

(Values after ChEMBL document CHEMBL4354860, “Targeting the Regulatory Site of ER Aminopeptidase 1 Leads to the Discovery of a Natural Product Modulator of Antigen Presentation” (J Med Chem, 2020).)
